Measurements published in patent publication US20150017665A1, “Peptides and Methods for Detecting MPO-ANCA” (The University of North Carolina at Chapel Hill, priority 2012, published 2015).

What was measured:
[1] = system: DR2 Tg mice; assay: Actively induced anti-MPO associated glomerulonephritis (peptide immunization); format: in vivo, mouse; settings: for glomerular disease: day 28
Method: DR2 Tg mice (Ooi et al., Proc. Natl. Acad. Sci. USA 109:E2615 (2012); Rich et al., Eur. J. Immunol. 34:1251 (2004)) were immunized s.c. with 3×100 μg of peptide antigen (OVA323-339, n=4 or MPO442-460, n=10) first in FCA then FIA on days 0, 7 and 14. Mice were culled on day 28.
For indirect immunofluorescence, ethanol fixed thioglycolate induced peritoneal neutrophils were cytospun onto slides, purified serum IgG (1 mg/ml) was applied for 20 minutes then anti-mouse IgG Ab was detected using FITC conjugated anti-mouse IgG Ab (Silenus) (Ooi et al., Proc. Natl. Acad. Sci. USA 109:E2615 (2012); Lock, J. Clin. Pathol. 47:4 (1994)). Albuminuria was assessed by ELISA (Bethyl Laboratories) and haematuria assessed by urine test strips (Combur) from a 24 hour urine sample. Blood urea nitrogen (BUN) was measured using standard laboratory methods on serum collected at the end of experiment. Glomerular abnormalities assessed, on […], PAS stained, formalin fixed, paraffin embedded sections (≧50 glomeruli/mouse), were thickening of the capillary walls and mesangial hypercellularity (Ooi et al., J. Am. Soc. Nephrol. 20:980 (2009)). Total glomerular cell nuclei were enumerated (≧20 glomeruli/mouse). Glomerular neutrophils were detected by immunoperoxidase staining of 6 μm thick, periodate lysine paraformaldehyde fixed, frozen kidney sections using anti-Gr-1 antibodies (RB6-8C5).

[2] = system: MPO-ANCA; assay: Epitope excision MALDI-TOF/TOF MS of patient and healthy Ig with native MPO; format: binding; parameters: key: HC: Healthy control; Active disease; Remission; settings: human Ig
Source text: Total immunoglobulin (IgG) was purified from sera using protein A/G PLUS-Agarose Reagent according to commercial protocol (Santa Cruz Biotechnology). Purified IgG was immobilized on CNBr-activated Sepharose 4B (GE Healthcare) in compact reaction columns (CRC, USB Corporation) and exposed to native MPO protein (MPO, Elastin Products Co, Inc) followed by digestion with sequencing grade TPCK-treated trypsin (Worthington). MPO-peptides remaining bound to IgG after digestion were eluted with 0.1% trifluoro acetic acid and analyzed on a 4800 Plus Matrix-Assisted Laser Desorption Ionization Time of Flight Mass Spectrometry (MALDI TOF/TOF MS/MS) in conjunction with ProteinPilot software (AB SCIEX).
To identify epitopes of low titer autoantibodies, ^18O labeling (Mirza et al., J. Proteome Res. 7:3042 (2008)) was used to differentiate between the signal and the noise in the MS and MSMS spectra using the 4 Da shifts between the corresponding spectra of labeled and non-labeled peptides. Mass spectrometry analysis for epitopes recognized by MPO autoantibodies from healthy individuals, and for detection of low ANCA titers in remission samples required the use of isotope H2^18O to increase sensitivity (Cambridge Isotope Laboratories). Samples from healthy individuals (n=10) and MPO-ANCA patients in clinical remission (n=35) were processed in the presence of H2^18O. Incorporation of H2^18O on the carboxyl terminus of each proteolytic fragment of MPO during tryptic digestion, trypsin buffer was made with the isotope H2^18O as a diluent.
MPO-ANCA positive patients (n=45) from the University of North Carolina cohort (UNC) were analyzed in the initial studies. Demographics of the cohort (Table 2) indicate a predominantly Caucasian group. Approximately 40% are diagnosed with microscopic polyangiitis (MPA), 40% with renal-limited disease and 20% are diagnosed with granulomatosis with polyangiitis (GPA). To compare epitope specificities related to disease activity, longitudinal samples were analyzed to include active disease (n=52) and remission (n=35) from the UNC cohort (Tables 3 and 4). Ten healthy subjects were included in the analyses. Purified immunoglobulin (Ig) from sera samples was subjected to analysis by epitope excision MALDI-TOF/TOF mass spectrometry (depicted in FIG. 3A) to identify epitope profiles of autoantibodies reactive with MPO. In order to epitope map low titer anti-MPO antibodies from healthy subjects and from patients in disease remission, an approach was designed using the ^16O-to-^18O exchange technique, an adaptation of a proteomics-based quantification method (Mirza et al., J. Proteome Res. 7:3042 (2008)). Incorporation of H2^18O on the carboxyl termini of proteolytic fragments produces a 4 Da mass shift in the MS spectra, decipherable from background noise. MPO epitopes unique to Ig from patients with active disease were designated ‘exclusive to active disease’; epitopes identified in remission samples were designated ‘persistent during remission’; and those present in samples from healthy subjects were designated asymptomatic or ‘natural’.

[3] = system: anti-MPO antibodies of immunized DR2 Tg mice; assay: Epitope excision MS of IgG from immunized DR2 Tg mice with recombinant mouse MPO; format: binding; settings: DR2 Tg mice immunized with MPO aa442-460
Method: (§1) Mass spectrometry analysis of ANCA-negative IgG and mouse IgG samples were conducted as above. With the exception of protein substrate, immobilized ANCA-negative IgG were exposed to whole leukocyte lysate preparation from a healthy donor and mouse IgG to recombinant mouse MPO (R&D Systems).
As HLA-MHC II help shape the B and T cell repertoires, and consequently the response to foreign and self-antigens, we wanted to define the epitope specificity of the anti-MPO autoantibodies that could be induced experimentally using DR2 Tg mice. In this way, we could assess development of the anti-MPO antibody response after immunization of a single epitope in the context of a human MHC II. IgG from sera of immunized mice was profiled for anti-MPO epitope specificity using epitope excision MS. DR2 Tg mice developed antibodies targeting the human B cell epitope aa447-459 which is within a conserved region of both murine and human MPO. Unpredictably, immunized DR2 Tg mice initiated a polyclonal response producing autoantibodies against the entire MPO molecule. The epitope profile was astonishingly similar to that of the MPO-ANCA human profile (Table 6), indicative of the critical nature of this epitope.

[4] = system: MPO-ANCA; assay: Peptide ELISA with total IgG (Chapel Hill and Groningen); format: binding, human; settings: for ELISA reactivity in clinical remission: UNC and NL cohorts, remission samples; for MPO-ANCA specific for the epitope detected by ELISA, patients positive/tested: isolated Ig
Method: A total of 195 IgG samples were tested by native MPO or peptide ELISA. Samples included those from healthy controls (n=59), active disease (n=80) and remission patients (n=56). Total IgG was added to wells (2 μg/well) precoated with 1-2 μg peptide (UNC-CH peptide synthesis core). Goat anti-human with alkaline phosphatase conjugate secondary antibody specific to IgG (H+L) (Millipore, Billerica, Mass.) (1:10,000) was added and detected using 1-Step PNPP substrate (Thermo Scientific) and read at λ=405 nm after 30 min. Identical peptides were used in ELISAs at both locations; all other substrates used to test NL cohort samples by ELISAs were prepared in Groningen. Total IgG (1:500˜2 mg/well) was added to precoated wells blocked with 1% BSA. Secondary antibody, goat anti-human conjugated with alkaline phosphatase (A5403; Sigma-Aldrich) (1:5000), was added and detected using p-nitrophenyl-phosphate disodium substrate.

[5] = system: IgG from ANCA-negative AAV patients; assay: Epitope excision MS of ANCA-negative IgG with whole leukocyte lysate; format: binding, human; settings: total Ig from ANCA-negative AAV patients
Method: as §1
A variation of epitope excision MS for MPO-ANCA was adapted into a ‘discovery’ tool for identifying unknown autoantigens in ANCA-negative AAV, which presents clinically as vasculitis although with a negative serology for MPO-ANCA and PR3-ANCA. ANCA-negative AAV patients were identified by retrospective review of the medical records, with criteria of histological evidence of vasculitis and negative serological test results from the UNC Hospital clinical laboratory. As an additional measure, sera samples selected for analysis were retested for ANCA reactivity by the laboratory of Dr. John Niles, Massachusetts General Hospital, Boston, USA and were confirmed to be ANCA-negative. Protein lysate of total peripheral blood leukocytes were probed for antigen/s that were reactive with purified total Ig from ANCA-negative AAV patients' sera (FIG. 5A). […] MPO-ANCA specific for this epitope were detected by ELISA using isolated Ig from 8/10 UNC AAV patients and from 6/11 NL AAV patients (Table 2).

[6] = system: anti-MPO^447-459 autoantibody; assay: Epitope masking ELISA with ceruloplasmin and its fragments; format: binding, human
Source text: Serum proteins that bound immobilized MPO peptide aa447-459 were eluted and sequenced for identification. […] Sequenced on a 4800 MALDI TOF-TOF, the protein was identified as ceruloplasmin (CP), and confirmed by western blot analysis probed with a rabbit anti-human anti-CP polyclonal antibody (Abeam). Native CP was purchased (Enzo Life Science) and proteolytically digested in vitro by plasmin (Haemtech).
(§2) To isolate the putative serum factor, immobilized MPO aa447-459 peptide was used as bait to fish-out host proteins with binding capacity. […] However, the CP bound to aa447-459 was primarily a 50 kD protein on sodium dodecyl sulfate polyacrylamide gel electrophoresis (SDS-PAGE), while full length CP is 151 kD (FIG. 6D). An anti-ceruloplasmin western blot confirmed the fragment to be a portion of CP (FIG. 6E). To test the role of proteolytic cleavage in generating the blocking factor, a plasmin-generated fragment of CP (Kingston et al., Proc. Natl. Acad. Sci. USA 74:5377 (1977)) was tested for epitope masking capability (FIG. 6F).

[7] = system: MPO-ANCA IgG (polyclonal); assay: Effect of CP on binding of polyclonal MPO-ANCA Ig to native MPO (ELISA); parameters: species or system human; settings: MPO-ANCA IgG from four patients
Source text: as §2

[8] = compared with OVA aa323-339 immunized mice

For “LYQEARKIVGAMVQIITYR (LYQEARKIVGAMVQITTYR; listed as Homo sapiens) [aa442-460]”, the “induction of MPO-reactive antibodies” value ([1]; after 28 days) was “MPO-reactive antibodies after 28 days”, the BUN [1, 8] was “increased BUN values” and the albuminuria [1, 8] was “developed albuminuria”. The hematuria [1, 8] was “hematuria” and the glomerular disease [1] was “mild glomerular proliferation”.

For “RKIVGAMVQIITY (listed as Homo sapiens) [aa447-459]”, the “Found in samples: Healthy control, Active disease, or Remission, (HC, A, R)” value (from here on “Found in samples: Healthy control”) ([2]; Table 1) was “A”, the “Found in samples: Healthy control” value ([2]; Table 6) was “A” and the “Epitopes found in immunized mice” value [3] was “RKIVGAMVQIITY”. The “level of ELISA reactivity versus disease activity” value ([4]; ANCA-negative patients, UNC (n=4) and NL (n=5), longitudinal) was “corresponded well with disease activity, declining to low levels as patients entered disease remission”, the “share of MPO-ANCA positive AAV patients with active disease in whom the epitope was identified” value ([4]; MPO-ANCA positive AAV, active disease) was about 50% and the “reactivity by ELISA, share of patient samples” value ([4]; NL population, active disease) was 52.2%. For the same molecule, the “reactivity by ELISA, share of patient samples” value ([4]; UNC MPO-ANCA patient samples, active disease) was 42.9%, the “ELISA reactivity in clinical remission” value [4] was “Reactivity declined in clinical remission” and the “MPO-ANCA specific for the epitope detected by ELISA, patients positive/tested” value ([4]; ANCA-negative NL AAV patients) was 6/11. For the same molecule, the “MPO-ANCA specific for the epitope detected by ELISA, patients positive/tested” value ([4]; ANCA-negative UNC AAV patients) was 8/10, the “peptide eluted from ANCA-negative Ig (MS)” value [5] was “A sole peptide was eluted and identified” and the glomerular disease [1] was “develop glomerulonephritis”.

In the case of “RSPTLGASNR (listed as Homo sapiens) [aa184-193]”, the “Found in samples: Healthy control” value ([2]; Table 1) is reported as “A”, the “Found in samples: Healthy control” value ([2]; Table 6) is reported as “A” and the “Epitopes found in immunized mice” value [3] is reported as “RSPTLGASNR”.

For “VFFASWR (listed as Homo sapiens) [aa530-536]”, the “Found in samples: Healthy control” value ([2]; Table 1) was “A, R, HC”, the “Found in samples: Healthy control” value ([2]; Table 6) was “A, R, HC” and the “Epitopes found in immunized mice” value [3] was “VFFASWR”.

In the case of “VVLEGGIDPILR (listed as Homo sapiens) [aa537-548]”, the “Found in samples: Healthy control” value ([2]; Table 1) is reported as “A”, the “Found in samples: Healthy control” value ([2]; Table 6) is reported as “A” and the “Epitopes found in immunized mice” value [3] is reported as “VVLEGGIDPILR”.

With “YQPMEPNPR (listed as Homo sapiens) [aa516-524]” the “Found in samples: Healthy control” value ([2]; Table 1) was “A, R, HC”, the “Found in samples: Healthy control” value ([2]; Table 6) was “A, R, HC” and the “ELISA reactivity in clinical remission” value [4] was “reactivity was found in remission samples in both cohorts”. The “ELISA reactivity with Ig from active disease samples” value ([4]; active disease samples) was “reactive with Ig from active disease samples”.

In the case of thrombin [reference compound], the “generation of a functional (blocking) ceruloplasmin fragment by serum proteases” value [6] is reported as “did not”.

For urokinase [reference compound], the “generation of a functional (blocking) ceruloplasmin fragment by serum proteases” value [6] was “produced a functional fragment”.

B1: digested CP: ceruloplasmin digested with plasmin in vitro to produce a 50 kD fragment (protein)
chain: SVPPSASHVAPTETFTYEWTVPKEVGPTNADPVCLAKMYYSAVEPTKDIFTGLIGPMKICKKGSLHANGRQKDVDKEFYLFPTVFDENESLLLEDNIRMFTTAPDQVDKEDEDFQESNKMHSMNGFMYGNQPGLTMCKGDSVVWYLFSAGNEADVHGIYFSGNTYLWRGERRDTANLFPQTSLTLHMWPDTEGTFNVECLTTDHYTGGMKQKYTVNQCRRQSEDSTFYLGERTYYIAAVEVEWDYSPQREWEKELHHLQEQNVSNAFLDKGEFYIGSKYKKVVYRQYTDSTFRVPVERKAEEEHLGILGPQLHADVGDKVKIIFKNMATRPYSIHAHGVQTESSTVTPTLPGETLTYVWKIPERSGAGTEDSACIPWAYYSTVDQVKDLYSGLIGPLIVCRRPYL
For B1, the “decrease of anti-MPO^447-459 autoantibody reactivity” value ([6]; ELISA, n=8) was 30-50% and the “effect on binding of polyclonal MPO-ANCA Ig to native MPO” value [7] was “did not affect the overall binding”.
